According to patent US20180066268A1, “USE OF VITAMINS AND VITAMIN METABOLIC GENES AND PROTEINS FOR RECOMBINANT PROTEIN PRODUCTION IN MAMMALIAN CELLS” (priority 2015, published 2018):

Assays:
[1] = test system: CHO-M cells; test: CHO-M growth in vitamin-depleted B-CDmin medium complemented with lower concentrations of each vitamin; type: cell-based, Chinese hamster
Protocol: Cells (5000 cells/ml) were transferred into 150 μl media with different concentrations of vitamin B1, B5 or H (from 0 to 1×, see Table 2). 96 well-plates were used and growth was measured after 9 days of culture, by measuring the OD at 600 nm. Hatched (forward-leaning), dotted dark and hatched (backward-leaning) bars indicate modulation of B1, B5 and H concentrations, respectively.
The depleted B-CDmin medium was complemented with lower concentration of each vitamin separately, to determine the contrations range limiting CHO-M growth.
Suspension Chinese hamster ovary cells (CHO-M) were maintained in suspension culture in SFM4CHO-M Hyclone serum-free medium (SFM, ThermoScientific™) supplemented with L-glutamine (PAA, Austria) and HT supplement (GIBCO, INVITROGEN LIFE SCIENCES) at […], 5% CO2 in humidified air. Other cell media used for these experiments are the BalanCD CHO-M Growth A (B-CDfull; Irvine Scientific), and the Deficient BalanCD CHO-M Growth A (B-CDmin; Irvine Scientific), supplemented with vitamin B1 (thiamine Hydrochloride; SIGMA ALDRICH), vitamin B5 (Calcium DL-Pantothenate; TCI) and vitamin H (Biotin, SIGMA ALDRICH)

[2] = test system: CHO-M cells; test: CHO-M growth in B-CDmin medium supplemented with various concentrations of B5 and H; type: cell-based, Chinese hamster; conditions: B5 in 10× excess with low H (10×B5; 10^−4×H), 6 days of culture
Protocol: Cells were seeded at 20000 cells/ml into 500 μl of B-CD min media supplemented with the indicated amounts of vitamin B5 and H, and with B1 (1×). A 24 well-plate was used and growth was measured after 6 days of culture by measuring viable cell density.

With Calcium DL-Pantothenate [B5] the “concentration allowing normal culture growth” value ([1]; relative to standard B5 concentration (1× = 2.5 μM)) was ≥ 10^−2 × and the “untransformed cell growth relative to complete medium (1×B5; 10^−4×H)” value [2] was “strongly inhibited”.
In the case of `O=C(O)CCCC[C@@H]1SC[C@@H]2NC(=O)N[C@@H]21` [H, Biotin], the “cell density versus full medium” value ([1]; H at low concentration (10^−5×)) is reported as “slightly higher”, the limiting concentration ([1]; absolute concentration as printed, CHO-M, 9 days of culture) is reported as less than 5 µM and the growth-limiting concentration range ([1]; relative to standard concentration (1×: B1 7.5 μM, B5 2.5 μM, H 0.5 μM), CHO-M, 9 days of culture) is reported as “lower than 10^−5 ×”.
